Experimental data reported in ChEMBL document CHEMBL4706686, “Design, synthesis and biological evaluation of dihydrofurocoumarin derivatives as potent neuraminidase inhibitors” (Bioorg Med Chem Lett, 2021).

Experiment: Inhibition of Influenza virus H5N1 neuraminidase
Design: species or system H5N1 subtype

Question: With `Cc1cc(=O)oc2c3c(ccc12)O/C(=C\c1ccc(O)c([N+](=O)[O-])c1)C3=O` as the molecule, how does the IC50 read?
Answer: 0.02 µM

Question: Which IC50 does the source give for `Cc1cc(=O)oc2c3c(ccc12)O/C(=C\c1ccc(Cl)cc1Cl)C3=O` here?
Answer: 36.2 µM

Question: For `Cc1cc(=O)oc2c3c(ccc12)O/C(=C\c1ccc(OS(C)(=O)=O)cc1)C3=O`, which IC50 is on record?
Answer: 32.4 µM

Question: With `COc1ccc(/C=C2\Oc3ccc4c(C)cc(=O)oc4c3C2=O)cc1O` as the molecule, how does the IC50 read?
Answer: 0.04 µM

Question: With `COc1cc(/C=C2\Oc3ccc4c(C)cc(=O)oc4c3C2=O)cc(OC)c1O` as the molecule, how does the IC50 read?
Answer: 0.15 µM

Question: With `CCCOc1ccc(/C=C2\Oc3ccc4c(C)cc(=O)oc4c3C2=O)cc1` as the molecule, how does the IC50 read?
Answer: 45.8 µM

Question: Which IC50 does the source give for `Cc1cc(=O)oc2c3c(ccc12)O/C(=C\c1ccc([N+](=O)[O-])c(O)c1)C3=O` here?
Answer: 0.03 µM

Question: Which IC50 does the source give for `Cc1cc(=O)oc2c3c(ccc12)O/C(=C\c1ccccn1)C3=O` here?
Answer: 39.5 µM

Question: With `CCOc1cc(/C=C2\Oc3ccc4c(C)cc(=O)oc4c3C2=O)ccc1O` as the molecule, how does the IC50 read?
Answer: 30 µM

Question: With `Cc1cc(=O)oc2c3c(ccc12)O/C(=C\c1cc([N+](=O)[O-])ccc1F)C3=O` as the molecule, how does the IC50 read?
Answer: 99.8 µM

Question: With `CCC(CC)O[C@@H]1C=C(C(=O)O)C[C@H](N)[C@H]1NC(C)=O` [OSELTAMIVIR CARBOXYLATE] as the molecule, how does the IC50 read?
Answer: 0.04 µM

Question: With `CCOC(=O)C1=C[C@@H](OC(CC)CC)[C@H](NC(C)=O)[C@@H](N)C1` [OSELTAMIVIR] as the molecule, how does the IC50 read?
Answer: 0.1 µM
